Laboratory results from patent US20090216010A1, “CRYSTALLINE CARBAPENEM COMPOUND AND PRODUCED METHOD THEREOF” (priority 2008, published 2009).
Like-named read-outs stand apart in the source and are kept apart here.

Assays:
[1] = stability during storage of the solid form; assay type: physicochemical; settings: new crystalline form B, compared with non-crystalline form, no data given
[2] = solid form, storage over a long period of time; prior-art forms (EP 126587A, EP 256377, US 4,888,344); cited from earlier work

stability during storage [1]	SMILES	stability during storage ([1]; listed as crystalline carbapenem compound of the present invention)	stability during storage [2]
stable for storage	C[C@@H](O)[C@H]1C(=O)N2C(C(=O)O)=C(S[C@@H]3CN[C@H](C(=O)N(C)C)C3)[C@H](C)[C@H]12 [Compound A in a new crystalline form B, (4R,5S,6S)-3-[[(3S,5S)-5-[(dimethylamino)carbonyl]-3-pyrrolidinyl]thio]-6-[(1R)-1-hydroxyethyl]-4-methyl-7-oxo-1-azabicyclo[3.2.0]hept-2-ene-2-carboxylic acid]	much more stable than carbapenem compound in a non-crystalline form	–
–	C[C@@H](O)[C@H]1C(=O)N2C(C(=O)O)=C(S[C@@H]3CN[C@H](C(=O)N(C)C)C3)[C@H](C)[C@H]12 [Compound A in such crystalline form A, (4R,5S,6S)-3-[[(3S,5S)-5-[(dimethylamino)carbonyl]-3-pyrrolidinyl]thio]-6-[(1R)-1-hydroxyethyl]-4-methyl-7-oxo-1-azabicyclo[3.2.0]hept-2-ene-2-carboxylic acid]	–	much more stable than in a non-crystalline form
–	C[C@@H](O)[C@H]1C(=O)N2C(C(=O)O)=C(S[C@@H]3CN[C@H](C(=O)N(C)C)C3)[C@H](C)[C@H]12 [Compound A in such non-crystalline form, (4R,5S,6S)-3-[[(3S,5S)-5-[(dimethylamino)carbonyl]-3-pyrrolidinyl]thio]-6-[(1R)-1-hydroxyethyl]-4-methyl-7-oxo-1-azabicyclo[3.2.0]hept-2-ene-2-carboxylic acid]	–	not sufficiently stable
